Experimental data from US5597919A, “Pyrimidinyl or Pyridinyl alkenyl amine compounds” (priority 1995, dated 1997).
pEC50: −log10 of the molar value.

System: ganglionic-type neuronal nicotinic receptors (rat pheochromocytoma clonal line PC 12)
Experiment: Interaction with ganglia: 86Rb+ efflux in PC12 cells
Format: cell-based
Conditions: not given

First: CNCC/C=C/c1ccc(C)nc1 [Sample No. 6, (E)-N-methyl-4-[3-(6-methylpyrindin)yl]-3-butene-1-amine]
Second: CNCC/C=C/c1cncnc1 [Sample No. 2, (E)-N-methyl-4-(5-pyrimidinyl)-3-butene-1-amine]
The “Ganglion Effect (% nicotine)” value of the first is higher: 4 % nicotine for the first, 1 % nicotine for the second.

Compared with CNCCCCc1cccnc1 [Sample No. 7, N-methyl-(3-1-pyridinyl)-butane-1-amine], CNCCC#Cc1cccnc1 [Sample No. 4, N-Methyl-4-(3-pyridinyl)-3-butyne-1-amine] is higher in “Ganglion Effect (% nicotine)” value: 31 % nicotine for the first, 59 % nicotine for the second.

COc1cncc(/C=C/CCN)c1 [Sample No. 3, (E)-4-[3-(5-methoxypyridin)yl]-3-butene-1-amine monofumarate] was tested, and the “Ganglion Effect (% nicotine)” value was 0 % nicotine.

System: dopamine release from synaptosomes of the striatal area of rat brain
Experiment: not given
Format: biochemical, rat (Sprague-Dawley)
Conditions: not given

First: CN1CCC[C@H]1c1cccnc1 [Sample No. C-1, (S)-(-)-nicotine, reference compound]
Second: CNCCC#Cc1cccnc1 [Sample No. 4, N-Methyl-4-(3-pyridinyl)-3-butyne-1-amine]
The pEC50 of the first is 1.86 log units higher: 6.94 for the first, 5.08 for the second. The first is the more potent here.

Compared with CNCC/C=C/c1ccc(C)nc1 [Sample No. 6, (E)-N-methyl-4-[3-(6-methylpyrindin)yl]-3-butene-1-amine], CNCC/C=C/c1cccnc1 [Sample No. 8, (E)-metanicotine] is 0.83 log units lower in pEC50: 6.66 for the first, 5.83 for the second.

NCC/C=C/c1cncnc1.O=C(O)/C=C/C(=O)O [Sample No. 1, (E)-4-(5-pyrimidinyl)-3-butene-1-amine monofumarate] and CNCC/C=C/c1cncnc1 [Sample No. 2, (E)-N-methyl-4-(5-pyrimidinyl)-3-butene-1-amine] are within 0.2 log units of each other in pEC50: 5.36 for the first, 5.24 for the second.

Going from CNCC/C=C\c1cccnc1 [Sample No. 5, (Z)-metanicotine] to COc1cncc(/C=C/CCN)c1 [Sample No. 3, (E)-4-[3-(5-methoxypyridin)yl]-3-butene-1-amine monofumarate], the pEC50 rises from 4.95 to 5.40 (0.45 log units). The second is the more potent here.

Same assay, conditions: rat, striatal synaptosomes

Compared with CNCC/C=C/c1ccc(C)nc1 [Sample No. 6, (E)-N-methyl-4-[3-(6-methylpyrindin)yl]-3-butene-1-amine], CNCC/C=C/c1cccnc1 [Sample No. 8, (E)-metanicotine] is higher in “Dopamine Release Emax (% nicotine)” value: 60 % nicotine for the first, 80 % nicotine for the second.

Going from CNCCCCc1cccnc1 [Sample No. 7, N-methyl-(3-1-pyridinyl)-butane-1-amine] to CNCC/C=C\c1cccnc1 [Sample No. 5, (Z)-metanicotine], the “Dopamine Release Emax (% nicotine)” value rises from 72 % nicotine to 88 % nicotine.

First: NCC/C=C/c1cncnc1.O=C(O)/C=C/C(=O)O [Sample No. 1, (E)-4-(5-pyrimidinyl)-3-butene-1-amine monofumarate]
Second: CNCC/C=C/c1cncnc1 [Sample No. 2, (E)-N-methyl-4-(5-pyrimidinyl)-3-butene-1-amine]
The “Dopamine Release Emax (% nicotine)” value of the first is higher: 113 % nicotine for the first, 77 % nicotine for the second.

Compared with CNCCC#Cc1cccnc1 [Sample No. 4, N-Methyl-4-(3-pyridinyl)-3-butyne-1-amine], COc1cncc(/C=C/CCN)c1 [Sample No. 3, (E)-4-[3-(5-methoxypyridin)yl]-3-butene-1-amine monofumarate] is higher in “Dopamine Release Emax (% nicotine)” value: 87 % nicotine for the first, 95 % nicotine for the second.
